Reference: patent US20230295133A1, “PROCESS FOR PREPARING A COMPOUND USEFUL TO TREAT MYCOSES” (PULMOCIDE LIMITED, priority 2014, published 2023)
Converted amounts (≈) assume the structure as drawn.

Assays:
[1] = tested on: aspergillus fumigatus (ATCC 13073 [strain: NIH 5233]); test: In vivo anti-fungal activity, prophylactic and therapeutic treatment of infected immunocompromised neutropenic mice; design: species or system A/J mice; settings: for % Inhibition versus Infected Control, GM in BALF / % Inhibition versus Infected Control, GM in serum / % Inhibition versus Infected Control, Lung Fungal Load: therapeutic treatment (days 1, 2 and 3); for % Inhibition versus Infected Controls, GM in BALF / % Inhibition versus Infected Controls, GM in serum / % Inhibition versus Infected Controls, Lung Fungal Load: prophylactic treatment (days 0, 1, 2 and 3)
[2] = tested on: aspergillus fumigatus infection of BEAS2B cells; test: Aspergillus fumigatus infection of bronchial epithelial cells (GM in supernatant); type: cell-based; settings: bronchial epithelial cells infected with Aspergillus fumigatus; read-out: MIC50 Infection of BEAS2B cells
Procedure: BEAS2B cells were seeded in 96-well plates (100 µL; 30,000 cells / well; Catalogue No 3596, Sigma Aldrich, Dorset, UK) in 10% FBS RPMI-1640 and were then incubated (37° C., 5% CO2) for one day before experimentation. Test compounds (0.5 µL DMSO solution) or vehicle (DMSO) were added to each well to give a final DMSO concentration of 0.5%. BEAS2B cells were incubated with test compounds for 1 hr (35° C., 5% CO2) before infection with aspergillus fumigatus (20 µL; Public Health England) conidia suspension (0.5×10^5 /ml in 10% FBS RPMI-1640). The plate was incubated for 24 hr (35° C., 5% CO2). Supernatant (50 µL) was collected and transferred to a PCR plate (Catalogue No L1402-9700, Starlab, Milton Keynes, UK), which was frozen (-20° C.) until use. After thawing, supernatant (5 µL) was diluted 1:20 by adding R7-PBS solution (95 µL; 1:4 R7 to PBS; Bio-Rad Laboratories, Redmond, WA, USA). GM levels in these samples (50 µL) were measured using Platelia GM-EIA kits (Bio-Rad Laboratories, Redmond, WA, USA). The percentage inhibition for each well was calculated and the IC50 value was calculated from the concentration-response curve generated for each test compound.

[3] = tested on: Aspergillus fumigatus L98H (TR34/L98H); test: Broth microdilution assay (modified EUCAST); type: cell-based; settings: Aspergillus fumigatus, read-out: MIC75 against Aspergillus fumigatus isolate L98H
Outline: (§1)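 Spores from 3-day Sabouraud cultures (working suspension 2 × 10^5 spores/mL) were added to an equal volume of RPMI-1640 (2 mM L-glutamine, 0.5% BSA, 2% glucose, 0.165 M MOPS, pH 7) containing compound, in quadruplicate. After 48 hr at 35 °C, OD530 gave percent inhibition. MIC50, MIC75 and MIC90 came from concentration-response curves.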

[4] = tested on: Aspergillus fumigatus NCPF2010; test: Broth microdilution assay (modified EUCAST); type: cell-based; settings: Aspergillus fumigatus, NCPF2010, read-out: MIC75 against Aspergillus fumigatus isolate NCPF2010
Outline: as §1

[5] = tested on: Aspergillus fumigatus NCPF7099; test: Broth microdilution assay (modified EUCAST); type: cell-based; settings: Aspergillus fumigatus, NCPF7099, n = 3, read-out: MIC75 against Aspergillus fumigatus isolate NCPF7099
Outline: as §1

[6] = tested on: Aspergillus fumigatus NCPF7100; test: Broth microdilution assay (modified EUCAST); type: cell-based; settings: Aspergillus fumigatus, NCPF7100, read-out: MIC75 against Aspergillus fumigatus isolate NCPF7100
[7] = Cell viability: resazurin assay; type: cell-based, human; settings: human, BEAS2B cells; n = 3-5
Outline: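 BEAS2B cells in RPMI-LHC8, exposed to compound for 1 day at 37 °C (0.5% DMSO final), then resazurin added for a further 4 h. Fluorescence (ex 545/em 590 nm) gives % viability loss vs 0.5% DMSO vehicle; CC50 from concentration-response curve.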

SMILES | % Inhibition versus Infected Control, GM in BALF ([1]; 0.08 mg/mL) [%] | % Inhibition versus Infected Control, GM in serum ([1]; 0.08 mg/mL) [%] | % Inhibition versus Infected Control, Lung Fungal Load ([1]; 0.08 mg/mL) [%] | % Inhibition versus Infected Control, GM in BALF ([1]; 0.4 mg/mL) [%] | % Inhibition versus Infected Control, GM in serum ([1]; 0.4 mg/mL) [%] | % Inhibition versus Infected Control, Lung Fungal Load ([1]; 0.4 mg/mL) [%] | MIC50 [2] [µM] | MIC [3] [µM] | MIC [4] [µM] | MIC [5] [µM] | MIC [6] [µM] | CC50 at 1 day [7] [µM] | % Inhibition versus Infected Controls, GM in BALF ([1]; 0.4 mg/mL) [%] | % Inhibition versus Infected Controls, GM in serum ([1]; 0.4 mg/mL) [%] | % Inhibition versus Infected Controls, Lung Fungal Load ([1]; 0.4 mg/mL) [%] | % Inhibition versus Infected Controls, GM in BALF ([1]; 2 mg/mL) [%] | % Inhibition versus Infected Controls, GM in serum ([1]; 2 mg/mL) [%] | % Inhibition versus Infected Controls, Lung Fungal Load ([1]; 2 mg/mL) [%]
Cc1nc(N2CCN(c3ccc(C(=O)Nc4ccc(F)cc4)cc3)CC2)ccc1OC[C@@H]1CO[C@@](Cn2cncn2)(c2ccc(F)cc2F)C1 [Example 3, 4-(4-(5-(((3R,5R)-5-((1H-1,2,4-Triazol-1-yl)Methyl)-5-(2,4-Difluorophenyl)Tetra Hydrofuran-3-yl)Methoxy)-6-Methylpyridin-2-yl)Piperazin-1-yl)-N-(4-Fluorophenyl) Benzamide] | 95 | 92 | 98 | 86 | 89 | 96 | 0.0517 (≈ 0.0353 µg/mL) | 0.033 (≈ 0.0226 µg/mL) | 0.018 (≈ 0.0123 µg/mL) | 0.0276 (≈ 0.0189 µg/mL) | 0.0451 (≈ 0.0308 µg/mL) | > 14.6 | – | – | – | – | – | –
N#Cc1cc(N2CCN(c3ccc(C(=O)Nc4ccc(F)cc4)cc3)CC2)ccc1OC[C@@H]1CO[C@@](Cn2cncn2)(c2ccc(F)cc2F)C1 [Example 4, 4-(4-(4-(((3R,5R)-5-((1H-1,2,4-Triazol-1-yl)Methyl)-5-(2,4-Difluorophenyl) Tetrahydrofuran-3-yl)Methoxy)-3-Cyanophenyl)Piperazin-1-yl)-N-(4-Fluorophenyl) Benzamide] | – | – | – | – | – | – | 0.00777 (≈ 0.00539 µg/mL) | 0.0737 (≈ 0.0511 µg/mL) | 0.00868 (≈ 0.00602 µg/mL) | 0.0413 (≈ 0.0287 µg/mL) | 0.0383 (≈ 0.0266 µg/mL) | > 14.4 | 84 | 90 | 85 | – | – | –
O=C(Nc1ccc(F)cc1)c1ccc(N2CCN(c3ccc(OC[C@@H]4CO[C@@](Cn5cncn5)(c5ccc(F)cc5F)C4)c(CO)c3)CC2)cc1 [Example 16, 4-(4-(4-(((3R, 5R)-5-((1H-1,2,4-triazol-1-yl)methyl)-5-(2,4-difluorophenyl)tetrahydrofuran-3-yl)methoxy)-3-hydroxymethylphenyl)piperazin-1-yl)-N-(4-fluorophenyl)benzamide] | 76 | 62 | 91 | 88 | 85 | 96 | 0.00082 (≈ 0.000573 µg/mL) | 0.0335 (≈ 0.0234 µg/mL) | 0.00512 (≈ 0.00358 µg/mL) | 0.00926 (≈ 0.00647 µg/mL) | 0.00658 (≈ 0.0046 µg/mL) | > 14.3 | – | – | – | – | – | –
Cc1cc(N2CCN(c3ccc(C(=O)Nc4ccc(S(N)(=O)=O)cc4)cc3)CC2)ccc1OC[C@@H]1CO[C@@](Cn2cncn2)(c2ccc(F)cc2F)C1 [Example 19, 4-(4-(4-(((3R, 5R)-5-((1H-1,2,4-triazol-1-yl)methyl)-5-(2,4-difluorophenyl)tetrahydrofuran-3-yl)methoxy)-3-methylphenyl)piperazin-1-yl)-N-(4-sulfamoylphenyl)benzamide] | – | – | – | – | – | – | 0.0172 (≈ 0.0128 µg/mL) | 0.0577 (≈ 0.0429 µg/mL) | 0.0166 (≈ 0.0123 µg/mL) | 0.0089 (≈ 0.00662 µg/mL) | 0.0227 (≈ 0.0169 µg/mL) | > 13.4 | 16 | 30 | 62 | 41 | 47 | 74
Cc1cc(N2CCN(c3ccc(C(=O)Nc4ccc(C#N)cc4F)cc3)CC2)ccc1OC[C@@H]1CO[C@@](Cn2cncn2)(c2ccc(F)cc2F)C1 [Example 23, 4-(4-(4-(((3R, 5R)-5-((1H-1,2,4-triazol-1-yl)methyl)-5-(2,4-difluorophenyl)tetrahydrofuran-3-yl)methoxy)-3-methylphenyl)piperazin-1-yl)-N-(4-cyano-2-fluorophenyl)benzamide] | – | – | – | – | – | – | 0.00337 (≈ 0.00239 µg/mL) | 0.0602 (≈ 0.0426 µg/mL) | 0.0126 (≈ 0.00892 µg/mL) | 0.0284 (≈ 0.0201 µg/mL) | 0.0443 (≈ 0.0314 µg/mL) | > 14.1 | 71 | 79 | 56 | – | – | –
COc1cc(C(=O)Nc2ccc(F)cc2)ccc1N1CCN(c2ccc(OC[C@@H]3CO[C@@](Cn4cncn4)(c4ccc(F)cc4F)C3)c(C)c2)CC1 [Example 34, 4-(4-(4-(((3R, 5R)-5-((1H-1,2,4-triazol-1-yl)methyl)-5-(2,4-difluorophenyl)tetrahydrofuran-3-yl)methoxy)3-methylphenyl)piperazin-1-yl)-N-(4-fluorophenyl)-3-methoxybenzamide] | – | – | – | – | – | – | 0.0219 (≈ 0.0156 µg/mL) | 0.0739 (≈ 0.0527 µg/mL) | 0.0446 (≈ 0.0318 µg/mL) | 0.029 (≈ 0.0207 µg/mL) | 0.0148 (≈ 0.0105 µg/mL) | > 14 | – | – | – | – | – | –
COc1cc(N2CCN(c3ccc(OC[C@@H]4CO[C@@](Cn5cncn5)(c5ccc(F)cc5F)C4)c(C)c3)CC2)ccc1C(=O)Nc1ccc(F)cc1 [Example 35, 4-(4-(4-(((3R,5R)-5-((1H-1,2,4-triazol-1-yl)methyl)-5-(2,4-difluorophenyl)tetrahydrofuran-3-yl)methoxy)-3-methylphenyl)piperazin-1-yl)-N-(4-fluorophenyl)-2-methoxybenzamide] | – | – | – | – | – | – | 0.125 (≈ 0.0891 µg/mL) | 0.178 (≈ 0.127 µg/mL) | 0.0634 (≈ 0.0452 µg/mL) | 0.109 (≈ 0.0777 µg/mL) | 0.111 (≈ 0.0791 µg/mL) | > 14 | – | – | – | – | – | –
Cc1cc(N2CCN(c3ccc(C(=O)Nc4cccc(C#N)n4)cc3)CC2)ccc1OC[C@@H]1CO[C@@](Cn2cncn2)(c2ccc(F)cc2F)C1 [Example 36, 4-(4-(4-(((3R, 5R)-5-((1H-1,2,4-triazol-1-yl)methyl)-5-(2,4-difluorophenyl)tetrahydrofuran-3-yl)methoxy)3-methylphenyl)piperazin-1-yl)-N-(6-cyanopyridin-2-yl)benzamide] | – | – | – | – | – | – | 0.00352 (≈ 0.00243 µg/mL) | 0.134 (≈ 0.0926 µg/mL) | 0.041 (≈ 0.0283 µg/mL) | 0.0445 (≈ 0.0307 µg/mL) | 0.0346 (≈ 0.0239 µg/mL) | > 14.5 | – | – | – | – | – | –
Cc1cc(N2CCN(c3ccc(C(=O)Nc4cc(C#N)ccn4)cc3)CC2)ccc1OC[C@@H]1CO[C@@](Cn2cncn2)(c2ccc(F)cc2F)C1 [Example 37, 4-(4-(4-(((3R,5R)-5-((1H-1,2,4-triazol-1-yl)methyl)-5-(2,4-difluorophenyl)tetrahydrofuran-3-yl)methoxy)-3-methylphenyl)piperazin-1-yl)-N-(4-cyanopyridin-2-yl)benzamide] | – | – | – | – | – | – | 0.0188 (≈ 0.013 µg/mL) | 0.194 (≈ 0.134 µg/mL) | 0.0284 (≈ 0.0196 µg/mL) | 0.0246 (≈ 0.017 µg/mL) | 0.022 (≈ 0.0152 µg/mL) | > 14.5 | – | – | – | – | – | –
N#Cc1ccc(NC(=O)c2ccc(N3CCN(c4ccc(OC[C@@H]5CO[C@@](Cn6cncn6)(c6ccc(F)cc6F)C5)c(CO)c4)CC3)cc2)nc1 [Example 38, 4-(4-(4-(((3R, 5R)-5-((1H-1,2,4-triazol-1-yl)methyl)-5-(2,4-difluorophenyl)tetrahydrofuran-3-yl)methoxy)-3-hydroxymethylphenyl)piperazin-1-yl)-N-(5-cyanopyridin-2-yl)benzamide] | – | – | – | – | – | – | 0.00486 (≈ 0.00343 µg/mL) | 0.0654 (≈ 0.0462 µg/mL) | 0.0124 (≈ 0.00876 µg/mL) | 0.0319 (≈ 0.0225 µg/mL) | 0.0336 (≈ 0.0237 µg/mL) | > 14.1 | – | – | – | – | – | –
